Where a name gives a salt, the structure may show the parent alone.
Key:
human αVβ6 = target: T1, human αVβ6 (Homo sapiens, UniProt P06756+P18564); test: human αVβ6 HTRF binding assay; conditions: recombinant human αVβ6 integrin, FITC-conjugated fibronectin
T1 construct: purchased R & D systems 3817-AV
In short: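 Biotinylated recombinant αVβ6 (1.25 nM final) incubated with FITC-fibronectin (5 nM) 1 h at RT, then streptavidin-terbium (0.625 nM) added and incubated overnight at RT in the dark before HTRF read. Buffer: 20 mM Tris pH 7.4, 1 mM MgCl2, 1 mM MnCl2, 0.01% Tween 20, 0.01% BSA.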

human αVβ3 = human αVβ3 (Homo sapiens, UniProt P05106+P06756); test: human αVβ3 HTRF binding assay
Chain of human αVβ3 (P06756 31-992 limits assumed): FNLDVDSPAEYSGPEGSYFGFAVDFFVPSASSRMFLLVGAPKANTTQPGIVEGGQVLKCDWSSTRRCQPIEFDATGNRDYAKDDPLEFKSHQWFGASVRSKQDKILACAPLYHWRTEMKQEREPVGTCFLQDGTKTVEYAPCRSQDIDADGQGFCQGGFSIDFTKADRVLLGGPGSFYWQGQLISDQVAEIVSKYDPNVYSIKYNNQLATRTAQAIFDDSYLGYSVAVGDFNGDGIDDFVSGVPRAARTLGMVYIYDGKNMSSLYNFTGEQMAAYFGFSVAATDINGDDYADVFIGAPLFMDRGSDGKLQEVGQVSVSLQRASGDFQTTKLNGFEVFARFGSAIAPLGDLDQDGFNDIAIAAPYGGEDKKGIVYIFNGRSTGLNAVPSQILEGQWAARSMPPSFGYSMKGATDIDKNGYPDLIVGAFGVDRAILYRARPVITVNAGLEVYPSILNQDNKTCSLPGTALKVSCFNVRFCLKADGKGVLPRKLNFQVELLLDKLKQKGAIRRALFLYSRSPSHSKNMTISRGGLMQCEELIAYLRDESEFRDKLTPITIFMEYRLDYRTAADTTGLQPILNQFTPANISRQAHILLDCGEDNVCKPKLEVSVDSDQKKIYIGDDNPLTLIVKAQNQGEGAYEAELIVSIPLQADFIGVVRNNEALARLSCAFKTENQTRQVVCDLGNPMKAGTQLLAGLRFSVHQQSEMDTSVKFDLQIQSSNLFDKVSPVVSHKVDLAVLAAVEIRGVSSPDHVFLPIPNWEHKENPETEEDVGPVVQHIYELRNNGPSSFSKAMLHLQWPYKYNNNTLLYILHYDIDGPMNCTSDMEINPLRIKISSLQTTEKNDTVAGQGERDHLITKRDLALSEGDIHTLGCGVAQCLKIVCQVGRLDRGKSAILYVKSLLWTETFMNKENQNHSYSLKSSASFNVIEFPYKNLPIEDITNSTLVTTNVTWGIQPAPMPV
Chain of human αVβ3 (P05106 27-718 limits assumed): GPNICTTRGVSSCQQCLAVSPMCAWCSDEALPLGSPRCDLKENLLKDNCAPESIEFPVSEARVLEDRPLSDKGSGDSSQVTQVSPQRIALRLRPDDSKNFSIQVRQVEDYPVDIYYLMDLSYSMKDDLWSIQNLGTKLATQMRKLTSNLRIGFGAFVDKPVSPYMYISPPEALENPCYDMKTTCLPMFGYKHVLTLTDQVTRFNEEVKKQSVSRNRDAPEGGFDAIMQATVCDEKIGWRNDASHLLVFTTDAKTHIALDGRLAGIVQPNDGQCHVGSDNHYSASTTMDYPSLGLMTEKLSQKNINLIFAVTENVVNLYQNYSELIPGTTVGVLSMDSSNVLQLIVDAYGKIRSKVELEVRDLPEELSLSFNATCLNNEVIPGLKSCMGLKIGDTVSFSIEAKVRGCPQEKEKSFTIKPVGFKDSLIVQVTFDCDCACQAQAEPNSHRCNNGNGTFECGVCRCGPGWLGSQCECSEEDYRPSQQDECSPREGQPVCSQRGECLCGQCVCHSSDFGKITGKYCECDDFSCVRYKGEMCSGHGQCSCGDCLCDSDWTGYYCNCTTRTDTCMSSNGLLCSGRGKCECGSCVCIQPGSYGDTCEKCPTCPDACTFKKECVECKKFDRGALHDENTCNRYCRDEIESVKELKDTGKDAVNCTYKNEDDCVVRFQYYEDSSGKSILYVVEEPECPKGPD
Method: (§1) All binding assays used the HTRF (homogeneous time resolved fluorescence) technology from Cisbio International, therefore all assays are described as HTRF binding assays. The assay results for the Examples are listed above together with the characterization data. The HTRF binding assays are established for the following integrins: human αVβ6, human αVβ1, human αVβ3, human αVβ5, and human αVβ8. All assays used the following assay buffer: 20 mM Tris, pH 7.4, 1 mM MgCl2, 1 mM MnCl2, 0.01% Tween 20, and 0.01% BSA. Alternatively, a SPA-based assay was used for evaluation of receptor binding.
The following describes the components and a representative procedure for the human αVβ6 HTRF binding assay: Recombinant human αVβ6 Integrin (R & D systems, 3817-AV) was biotinylated. Biotinylated human αVβ6 Integrin was added to assay vessel at a final concentration of 1.25 nM. FITC-conjugated fibronectin (Cytoskeleton, FNR02) was then added at the final concentration of 5 nM. The mixture was centrifuged at 600 rpm for three minutes using Thermo Fisher Heraeus Multifuge X3 centrifuge and then incubated at RT for an hour. Streptavidin Terbium (Cisbio international 610STLB) was then added at the final concentration of 0.625 nM. The resulting mixture was centrifuged at 600 rpm for three minutes using Thermo Fisher Heraeus Multifuge X3 centrifuge and then incubated at room temperature overnight in dark before reading HTRF signals.

human αVβ8 = human αVβ8 (Homo sapiens, UniProt P06756+P26012); test: human αVβ8 HTRF binding assay
Chain of human αVβ8 (P06756 31-992 limits assumed): as the sequence (P06756 31-992 limits assumed) above
Chain of human αVβ8 (P26012 43-684 limits assumed): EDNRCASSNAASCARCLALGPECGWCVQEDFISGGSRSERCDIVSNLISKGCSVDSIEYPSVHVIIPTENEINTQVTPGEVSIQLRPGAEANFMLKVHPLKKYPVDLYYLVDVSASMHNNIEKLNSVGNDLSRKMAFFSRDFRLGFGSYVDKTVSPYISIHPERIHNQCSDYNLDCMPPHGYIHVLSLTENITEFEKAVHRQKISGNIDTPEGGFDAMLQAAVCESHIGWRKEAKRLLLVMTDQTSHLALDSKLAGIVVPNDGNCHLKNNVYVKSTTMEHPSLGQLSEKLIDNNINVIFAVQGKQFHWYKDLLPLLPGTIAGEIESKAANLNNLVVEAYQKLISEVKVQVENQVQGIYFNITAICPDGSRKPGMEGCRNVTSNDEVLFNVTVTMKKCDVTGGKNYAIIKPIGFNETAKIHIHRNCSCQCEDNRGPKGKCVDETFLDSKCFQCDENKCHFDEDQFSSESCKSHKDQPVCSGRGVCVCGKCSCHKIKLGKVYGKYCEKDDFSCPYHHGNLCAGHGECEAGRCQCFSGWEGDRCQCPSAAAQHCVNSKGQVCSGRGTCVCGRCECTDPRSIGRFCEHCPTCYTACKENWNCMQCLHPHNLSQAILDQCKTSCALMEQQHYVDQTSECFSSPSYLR
Method: as §1, with “binding. […]” for “binding.”

T1 sequence (P06756 31-992 limits assumed): as the sequence (P06756 31-992 limits assumed) above
T1 sequence (P18564 22-707 limits assumed): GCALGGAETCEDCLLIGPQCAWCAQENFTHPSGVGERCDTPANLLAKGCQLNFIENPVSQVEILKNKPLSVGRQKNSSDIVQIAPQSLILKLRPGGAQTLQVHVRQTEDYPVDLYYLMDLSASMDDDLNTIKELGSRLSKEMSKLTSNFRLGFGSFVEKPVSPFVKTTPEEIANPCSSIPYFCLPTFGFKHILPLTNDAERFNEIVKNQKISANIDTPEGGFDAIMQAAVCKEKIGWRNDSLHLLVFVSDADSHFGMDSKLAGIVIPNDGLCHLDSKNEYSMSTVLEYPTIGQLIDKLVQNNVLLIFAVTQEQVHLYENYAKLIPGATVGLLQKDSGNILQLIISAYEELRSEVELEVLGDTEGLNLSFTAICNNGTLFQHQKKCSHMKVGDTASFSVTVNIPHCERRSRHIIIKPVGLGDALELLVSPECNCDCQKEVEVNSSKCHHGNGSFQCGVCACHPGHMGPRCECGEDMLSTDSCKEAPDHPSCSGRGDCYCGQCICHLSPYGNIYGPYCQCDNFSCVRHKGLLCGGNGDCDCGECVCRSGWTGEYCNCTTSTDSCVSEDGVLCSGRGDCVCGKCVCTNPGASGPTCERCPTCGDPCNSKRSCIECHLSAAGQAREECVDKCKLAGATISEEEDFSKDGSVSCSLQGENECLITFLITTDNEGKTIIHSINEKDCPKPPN

| Compound | IC50 (human αVβ6) | IC50 (human αVβ3) | IC50 (human αVβ8) |
| --- | --- | --- | --- |
| COc1cncc(C(CC(=O)O)n2ccc(CCCc3ccc4c(n3)NCCC4)n2)c1 (single isomer, unassigned) [Example 64, 3-(5-methoxypyridin-3-yl)-3-(3-(3-(5,6,7,8-tetrahydro-1,8-naphthyridin-2-yl)propyl)-1H-pyrazol-1-yl)propanoic acid] | 19 nM | 3.8 nM | 110 nM |
| Cn1cc([C@H](CC(=O)O)n2ccc(CCCc3ccc4c(n3)NCCC4)n2)ccc1=O [Example 45, (S)-3-(1-Methyl-6-oxo-1,6-dihydropyridin-3-yl)-3-(3-(3-(5,6,7,8-tetrahydro-1,8-naphthyridin-2-yl)propyl)-1H-pyrazol-1-yl)propanoic acid ditrifluoroacetic acid salt] | 1.6 nM | 1.6 nM | 3020 nM |
| COc1ccc(C(CC(=O)O)c2ncc(CCCCc3ccc4c(n3)NCCC4)n2C)cc1F (single isomer, unassigned) [Example 167, 3-(3-fluoro-4-methoxyphenyl)-3-(1-methyl-5-(4-(5,6,7,8-tetrahydro-1,8-naphthyridin-2-yl)butyl)-1H-imidazol-2-yl)propanoic acid] | 27 nM | – | – |
| COc1ccc(C(CC(=O)O)c2ncc(CCCCc3ccc4c(n3)NCCC4)n2C)cn1 (single isomer, unassigned) [Example 164, 3-(6-methoxypyridin-3-yl)-3-(1-methyl-5-(4-(5,6,7,8-tetrahydro-1,8-naphthyridin-2-yl)butyl)-1H-imidazol-2-yl)propanoic acid] | 460 nM | – | – |
| COc1ccc(C(CC(=O)O)c2nc(CCCc3ccc4c(n3)NCCC4)cs2)cc1OC (single isomer, unassigned) [Example 142, 3-(3,4-dimethoxyphenyl)-3-(4-(3-(5,6,7,8-tetrahydro-1,8-naphthyridin-2-yl)propyl)thiazol-2-yl)propanoic acid] | 37 nM | – | – |
| CN(C)C(=O)c1ccc(C(CC(=O)O)c2nc(CCCc3ccc4c(n3)NCCC4)cs2)cc1F (single isomer, unassigned) [Example 135, 3-(4-(dimethylcarbamoyl)-3-fluorophenyl)-3-(4-(3-(5,6,7,8-tetrahydro-1,8-naphthyridin-2-yl)propyl)thiazol-2-yl)propanoic acid] | 4.9 nM | – | – |
| O=C(O)CC(c1cncc(N2CCOCC2)c1)n1ccc(CCCc2ccc3c(n2)NCCC3)n1 (single isomer, unassigned) [Example 68, 3-[5-(morpholin-4-yl)pyridin-3-yl]-3-{3-[3-(5,6,7,8-tetrahydro-1,8-naphthyridin-2-yl)propyl]-1H-pyrazol-1-yl}propanoic acid] | 2.8 nM | – | – |
| COc1ccc(C(CC(=O)O)c2nc(CCCCc3ccc4c(n3)NCCC4)c(C)o2)cc1F (centres unmarked) [Example 181, 3-(3-fluoro-4-methoxyphenyl)-3-(5-methyl-4-(4-(5,6,7,8-tetrahydro-1,8-naphthyridin-2-yl)butyl)oxazol-2-yl)propanoic acid] | 1060 nM | – | – |
| COc1ccc(C(CC(=O)O)n2ncc(CCCc3ccc4c(n3)NCCC4)n2)cc1F (single isomer, unassigned) [Example 172, 3-(3-fluoro-4-methoxyphenyl)-3-(4-(3-(5,6,7,8-tetrahydro-1,8-naphthyridin-2-yl)propyl)-2H-1,2,3-triazol-2-yl)propanoic acid] | 53 nM | – | – |
| CN(C)c1ccc(C(CC(=O)O)c2nc(CCCCc3ccc4c(n3)NCCC4)cs2)cn1 (single isomer, unassigned) [Example 121, 3-(6-(dimethylamino)pyridin-3-yl)-3-(4-(4-(5,6,7,8-tetrahydro-1,8-naphthyridin-2-yl)butyl)thiazol-2-yl)propanoic acid] | 170 nM | – | – |
| O=C(O)CC(c1cccc(N2CCOCC2)c1)c1nc(CCCCc2ccc3c(n2)NCCC3)cs1 (single isomer, unassigned) [Example 126, 3-(3-morpholinophenyl)-3-(4-(4-(5,6,7,8-tetrahydro-1,8-naphthyridin-2-yl)butyl)thiazol-2-yl)propanoic acid] | 6 nM | – | – |
| O=C(O)CCCNc1cc(C(CC(=O)O)n2nccc2CCCc2ccc3c(n2)NCCC3)ccn1 (racemic) [Example 79, (±)-4-{[4-(2-carboxy-1-{5-[3-(5,6,7,8-tetrahydro-1,8-naphthyridin-2-yl)propyl]-1H-pyrazol-1-yl}ethyl)pyridin-2-yl]amino}butanoic acid] | 300 nM | – | – |
| COc1ncc(C(CC(=O)O)c2nc(CCCc3ccc4c(n3)NCCC4)cs2)cn1 (centres unmarked) [Example 145, 3-(2-methoxypyrimidin-5-yl)-3-(4-(3-(5,6,7,8-tetrahydro-1,8-naphthyridin-2-yl)propyl)thiazol-2-yl)propanoic acid] | 4.5 nM | – | – |
| O=C(O)C[C@@H](c1ccc(OCC2CC2)nc1)n1ccc(CCCc2ccc3c(n2)NCCC3)n1 [Example 112, (S)-3-(6-(cyclopropylmethoxy)pyridin-3-yl)-3-(3-(3-(5,6,7,8-tetrahydro-1,8-naphthyridin-2-yl)propyl)-1H-pyrazol-1-yl)propanoic acid] | 3.5 nM | – | – |
| COc1ncc(C(CC(=O)O)n2nccc2CCCc2ccc3c(n2)NCCCC3)cn1 (racemic) [Example 106, (±)-3-(2-methoxypyrimidin-5-yl)-3-(5-(3-(6,7,8,9-tetrahydro-5H-pyrido[2,3-b]azepin-2-yl)propyl)-1H-pyrazol-1-yl)propanoic acid] | 820 nM | – | – |
| COc1ccc(C(CC(=O)O)c2cc(CCCc3ccc4c(n3)NCCC4)[nH]n2)cc1F (single isomer, unassigned) [Example 115, 3-(3-Fluoro-4-methoxyphenyl)-3-(5-(3-(5,6,7,8-tetrahydro-1,8-naphthyridin-2-yl)propyl)-1H-pyrazol-3-yl)propanoic acid] | 97 nM | – | – |
| COc1ccc(C(CC(=O)O)c2nc(CCCC3CCc4cccnc4N3)cs2)cc1F (single isomer, unassigned) [Example 159, 3-(3-fluoro-4-methoxyphenyl)-3-(4-(3-(1,2,3,4-tetrahydro-1,8-naphthyridin-2-yl)propyl)thiazol-2-yl)propanoic acid] | 370 nM | – | – |
| COc1ccc(C(CC(=O)O)c2ncc(CCCCc3ccc4c(n3)NCCC4)s2)cc1F (single isomer, unassigned) [Example 41, (3-Fluoro-4-methoxyphenyl)-3-(5-(4-(5,6,7,8-tetrahydro-1,8-naphthyridin-2-yl)butyl)thiazol-2-yl)propanoic acid] | 5.9 nM | – | – |
| COc1ccc(C(CC(=O)O)n2nccc2CCCc2ccc3c(n2)NCCC3)nn1 (racemic) [Example 58, (±)-3-(6-Methoxypyridazin-3-yl)-3-(5-(3-(5,6,7,8-tetrahydro-1,8-naphthyridin-2-yl)propyl)-1H-pyrazol-1-yl)propanoic acid] | 2100 nM | – | – |
| COc1ccc(C(CC(=O)O)c2ncc(CCCc3ccc4c(n3)NCCC4)s2)cc1F (single isomer, unassigned) [Example 43, 3-(3-Fluoro-4-methoxyphenyl)-3-(5-(3-(5,6,7,8-tetrahydro-1,8-naphthyridin-2-yl)propyl)thiazol-2-yl)propanoic acid] | 18 nM | – | – |
| Cc1ncc(C(CC(=O)O)c2nc(CCCc3ccc4c(n3)NCCC4)cs2)cn1 (single isomer, unassigned) [Example 148, 3-(2-methylpyrimidin-5-yl)-3-(4-(3-(5,6,7,8-tetrahydro-1,8-naphthyridin-2-yl)propyl)thiazol-2-yl)propanoic acid] | 6 nM | – | – |
| COc1ccc(C(CC(=O)O)n2ccc(CCCc3ccc4c(n3)NCCC4)n2)cc1F (racemic) [Example 49, (±)-3-(3-Fluoro-4-methoxyphenyl)-3-(3-(3-(5,6,7,8-tetrahydro-1,8-naphthyridin-2-yl)propyl)-1H-pyrazol-1-yl)propanoic acid] | 24 nM | – | – |
| Cc1ncc(C(CC(=O)O)n2ccc(CCCc3ccc4c(n3)NCCC4)n2)cn1 (racemic) [Example 22, (±)-3-(2-Methylpyrimidin-5-yl)-3-(3-(3-(5,6,7,8-tetrahydro-1,8-naphthyridin-2-yl)propyl)-1H-pyrazol-1-yl)propanoic acid] | 64 nM | – | – |
| O=C(O)CC(c1cncc(N2CCCC2)c1)n1ccc(CCCc2ccc3c(n2)NCCC3)n1 (racemic) [Example 66, (±)-3-[5-(pyrrolidin-1-yl)pyridin-3-yl]-3-{3-[3-(5,6,7,8-tetrahydro-1,8-naphthyridin-2-yl)propyl]-1H-pyrazol-1-yl}propanoic acid] | 21 nM | – | – |
| COc1ncc([C@@H](CC(=O)O)n2ccc(CCCc3ccc4c(n3)NCCC4)n2)cn1 [Example 83, (R)-3-(2-methoxypyrimidin-5-yl)-3-(3-(3-(5,6,7,8-tetrahydro-1,8-naphthyridin-2-yl)propyl)-1H-pyrazol-1-yl)propanoic acid] | 310 nM | – | – |
